According to US8268827B2, “Pyridazinone derivatives as PARP inhibitors” (Istituto di Ricerche di Biologia Molecolare P. Angeletti …, priority 2007, dated 2012):
Where a name gives a salt, the structure may show the parent alone.

Tested on: BRCA-1 silenced HeLa cells (HeLa shBRCA1-GFP)
Experiment: Proliferation assay in BRCA-1 silenced HeLa cells
Assay type: cell-based
Conditions: Homo sapiens; BRCA1 silenced HeLa cells, 168 hours; read-out: CC50 in the BRCA1 silenced HeLa cells
Protocol: Proliferation Assay in BRCA-1 Silenced HeLa Cells
Compounds of the present invention were also tested in an anti-proliferative assay in matched pair BRCA1 wt and BRCA1-(shRNA) HeLa cells.
The assay is based on the ability of living cells to convert a redox dye (resazurin) into a fluorescent end product (resofurin). The amount of resofurin produced is directly proportional to the cell number.
HeLa shBRCA1-GFP—These are HeLa cells transduced at an MOI of 100 with a Lentivirus containing a shRNA against BRCA-1 and an expression cassette for GFP. BRCA-1 silencing is more than 80% as assessed by Taqman analysis and the cells stably express GFP.
HeLa THM-GFP—These are HeLa cells transduced at an MOI of 100 with a control vector not expressing any shRNA.
• Seed 300 cell/well in 96 wells viewplate black in 90 ul culture Medium*: • Incubate 4 hours at 37° C., 5% CO2 • Add 10 ul/well of 10× compound (5% DMSO in H2O) • Incubate for 168 hours at 37° C., 5% CO2 • Add 10 ul of Celltiter Blue solution (Promega, G8081) pre-diluted 1:1 in PBS1× • Incubate the mixture for 45′ at 37° C., 5% CO2 • Incubate 15′ at RT in the dark • Read plate at fluorimeter ex: 550 nm; em: 590 nm *Culture Medium: DMEM (GIBCO, 41966-029), 10% FCS (GIBCO, 10106-169), 0.1 mg/ml Penicillin-Streptomycin (GIBCO, 15140-114), 2 mM L-Glutamine (GIBCO, 3042190)

Cc1c(Cc2ccc(F)c(C(=O)N3CCN([C@@H](C)c4ccccc4)C(=O)C3)c2)n[nH]c(=O)c1C [Example 122, 6-[4-fluoro-3-({3-oxo-4-[(1S)-1-phenylethyl]piperazin-1-yl}carbonyl)benzyl]-4,5-dimethyl-3-oxo-2,3-dihydropyridazin-1-ium trifluoroacetate]
CC50: 50 to 500 nM

Cc1c(Cc2ccc(F)c(C(=O)N3CCN([C@@H]4CCOC4)C(=O)C3)c2)n[nH]c(=O)c1C [Example 112, 6-[4-Fluoro-3-({3-oxo-4-[(3R)-tetrahydrofuran-3-yl]piperazin-1-yl}carbonyl)benzyl]-4,5-dimethylpyridazin-3(2H)-one]
CC50: < 5000 nM

Cc1c(Cc2ccc(F)c(C(=O)N3CC(=O)N(C4CCC4)C(C)C3)c2)n[nH]c(=O)c1C (stereo not drawn) [Example 163, 6-{3-[(4-Cyclobutyl-3-methyl-5-oxopiperazin-1-yl)carbonyl]-4-fluorobenzyl}-4,5-dimethylpyridazin-3(2H)-one]
CC50: < 50 nM

CCCCN1CCN(C(=O)c2cc(Cc3n[nH]c(=O)c(C)c3C)ccc2F)CC1=O [Example 18, 6-{3-[(4-Butyl-3-oxopiperazin-1-yl)carbonyl]-4-fluorobenzyl}-4,5-dimethylpyridazin-3(2H)-one trifluoroacetate]
CC50: 50 to 500 nM

CCc1cc(Cc2ccc(F)c(C(=O)N3CCN([C@@H]4CCc5ccccc5C4)C(=O)C3)c2)n[nH]c1=O [Example 160, 4-ethyl-6-[4-fluoro-3-({3-oxo-4-[(2R)-1,2,3,4-tetrahydronaphthalen-2-yl]piperazin-1-yl}carbonyl)benzyl]pyridazin-3(2H)-one]
CC50: 50 to 500 nM

Cc1c(Cc2ccc(F)c(C(=O)N3CC(=O)N(C4CCOC4)C(C)C3)c2)n[nH]c(=O)c1C (stereo not drawn) [Example 130, 6-(4-Fluoro-3-{[3-methyl-5-oxo-4-(tetrahydrofuran-3-yl)piperazin-1-yl]carbonyl}benzyl)-4,5-dimethylpyridazin-3(2H)-one trifluoroacetate]
CC50: 50 to 500 nM

Cc1c(Cc2ccc(F)c(C(=O)N3CCN(CC(C)(C)O)C(=O)C3)c2)n[nH]c(=O)c1C [Example 173, 6-(4-Fluoro-3-{[4-(2-hydroxy-2-methylpropyl)-3-oxopiperazin-1-yl]carbonyl}benzyl)-4,5-dimethylpyridazin-3(2H)-one]
CC50: < 5000 nM

Cc1c(Cc2ccc(F)c(C(=O)N3CCN(C4COC5(CCCCC5)C4)C(=O)C3)c2)n[nH]c(=O)c1C (stereo not drawn) [Example 107, 6-(4-Fluoro-3-{[4-(1-oxaspiro[4.5]dec-3-yl)-3-oxopiperazin-1-yl]carbonyl}benzyl)-4,5-dimethylpyridazin-3(2H)-one trifluoroacetate]
CC50: 50 to 500 nM

COCC(C)N1CCN(C(=O)c2cc(Cc3n[nH]c(=O)c(C)c3C)ccc2F)CC1=O (stereo not drawn) [Example 162, 6-(4-Fluoro-3-{[4-(2-methoxy-1-methylethyl)-3-oxopiperazin-1-yl]carbonyl}benzyl)-4,5-dimethylpyridazin-3(2H)-one]
CC50: < 50 nM

COc1cccc(N2CCN(C(=O)c3cc(Cc4n[nH]c(=O)c(C)c4C)ccc3F)CC2=O)c1 [Example 22, 6-(4-Fluoro-3-{[4-(3-methoxyphenyl)-3-oxopiperazin-1-yl]carbonyl}benzyl)-4,5-dimethylpyridazin-3(2H)-one trifluoroacetate]
CC50: 50 to 500 nM

Cc1c(Cc2ccc(F)c(C(=O)N3CCN([C@H](c4ccccc4)C(F)F)C(=O)C3)c2)n[nH]c(=O)c1C [Example 123, 6-(3-{[4-(2,2-difluoro-1R-phenylethyl)-3-oxopiperazin-1-yl]carbonyl}-4-fluorobenzyl)-4,5-dimethyl-3-oxo-2,3-dihydropyridazin-1-ium trifluoroacetate]
CC50: 50 to 500 nM

Cc1c(Cc2ccc(F)c(C(=O)N3CCN(c4cncnc4)C(=O)C3)c2)n[nH]c(=O)c1C [Example 64, 3-{4-Fluoro-3-[(3-oxo-4-pyrimidin-5-ylpiperazin-1-yl)carbonyl]benzyl}-4,5-dimethyl-6-oxo-1,6-dihydropyridazin-1-ium trifluoroacetate]
CC50: < 5000 nM
